Common to all, as to assay type: cell-based, human
The subject of assay [1] is […] cell lines, comprising 9 subtypes of lymphomas. The assay can be described thus: Cell surface BCMA by FACS, lymphoma cell line panel. The procedure: (§1) […] cell lines, comprising 9 subtypes of lymphomas (see Table 1), were seeded at 1×10^5 cells/well in a total volume of 250 μl into a 96-well plate. The cells were cultured in RPMI medium supplemented with 10% FCS. Compound (22) was added to the cell cultures at a concentration of 10 μM, 1 μM, 100 nM, 10 nM, 1 nM, 100 pM, 10 pM, 1 pM, and 100 fM, and cell lines (8 from Hadassah Medical Center, 31 from Eurofins) were incubated at 37° C. for 24 hours with Compound (22). Following incubation, the cells were collected and BCMA levels were evaluated on the cell surface for cell-bound BCMA. Cells were stained with an anti-BCMA antibody (PE anti-human 19F2 BCMA, Biolegend), and cell surface BCMA levels were determined by FACS analysis (Mean Fluorescence Intensity. Soluble BCMA levels were analyzed by ELISA (Human BCMA/TNFRSF17 DuoSet kit: R&D Systems).

Assay [2] relates to SP49 cells (Mantle Cell Lymphoma). Briefly: Cell surface BCMA by FACS. The procedure: (§2) Cells were seeded at 1×10^4 cells/well in a total volume of 250 μl into a 96-well plate. The cells were cultured in RPMI supplemented with 10% FCS.
(§3) The tested compounds (Compound 1 and Compound 22) were added to the cell cultures at concentrations of: 0, 10, 1, 0.5, 0.1, 0.01, 0.001 μM ([…], 10 nM, 100 nM, 500 nM, 1000 nM, and 10000 nM). Following 24 hours of incubation at 37° C., the cells were collected and stained with anti-BCMA antibody and immediately analyzed by FACS.
as §1
In general terms: Flow cytometry measures light scatter and fluorescence of single cells or particles in a stream.

Assay [3] relates to SUDHL-4 (Haddasah) cells (DLBCL). Briefly: Cell surface BCMA by FACS. The procedure:
as §2, §3, §1

The next assay has as its system RC cells (DLBCL). The assay can be described thus: Cell surface BCMA by FACS. The procedure: as §2, §3, §1

SMILES strings stand for the structures.

In the case of `Cc1cccc2c1NC(=O)[C@@H](NC(=O)[C@H](CCC(F)(F)F)[C@H](CCC(F)(F)F)C(N)=O)N=C2c1cccc(F)c1` [Compound (22), (2R,3S)—N-((3S)-5-(3-fluorophenyl)-9-methyl-2-oxo-2,3-dihydro-1H-1,4-benzodiazepin-3-yl)-2,3-bis(3,3,3-trifluoropropyl)succinamide], the “cell-bound BCMA levels” value is recorded as “did not increase cell-bound BCMA levels” in assay [1] (B-ALL, histiocytic lymphoma, anaplastic large cell lymphoma, cutaneous T-cell lymphoma cell lines); “increased cell-bound BCMA levels” in assay [1] (cell lines derived from Mantle Cell Lymphoma, DLBCL, Burkitt's Lymphoma, B-cell Lymphoma, 24 h); “increased cell-bound BCMA levels” in assay [1] (cell lines from Hodgkin's Lymphoma patients). Besides, the “increase of BCMA expression” value in assay [1] (certain lymphomas) is given as “Compound (22) increases BCMA expression in certain lymphomas by 2-9 fold”. For the same compound, in assay [1] (certain lymphomas), the mBCMA result is “increases mBCMA”. The “mBCMA (MFI) Fold Increase” value is 3.3 fold in assay [2], 2.5 fold in assay [3] (SUDHL-4 (Haddasah)) and 2.9 fold in the assay with RC cells (DLBCL). For the same compound, the “BCMA (Mean Fluorescence Intensity) 1 nM Compound (22)” value in assay [2] (1 nM, 24 h) is reported as 12697; in assay [3] (SUDHL-4, 1 nM, 24 h), 16100; in the assay on RC cells (DLBCL) (1 nM, 24 h) it was 12970. For the same compound, the “BCMA (Mean Fluorescence Intensity) 100 nM Compound (22)” value was 17462 in assay [2] (100 nM, 24 h); 23438 in assay [3] (SUDHL-4, 100 nM, 24 h); 15001 in the assay on RC cells (DLBCL) (100 nM, 24 h).

(Values after patent publication US20200085839A1, “COMBINATION OF IMMUNOTHERAPEUTICS AND BISFLUOROALKYL-1,4-BENZODIAZEPINONE COMPOUNDS FOR TREATING LYMPHOMAS” (Ayala Pharmaceuticals Inc., priority 2018, published 2020).)
